One experiment relates to adult S. mansoni. Kind of experiment: Movement assay of cultured adult S. mansoni (Example 2). Type of experiment: cell-based. Conditions: Schistosoma mansoni; FIG. 19B; read-out: EC50, stimulation of adult schistosome movement. An excerpt:
(§1) Female Swiss Webster mice infected with S. mansoni cerceria (NMRI strain) were sacrificed 49 days post infection by CO2 euthanasia. Adult schistosomes were recovered by perfusion with a solution of 0.85% sodium chloride+0.75% sodium citrate and dissection of the mesenteric vasculature. Harvested schistosomes were washed in RPMI 1640 Medium with GlutaMAX+5% heat inactivated FBS (Gibco) and Penicillin-Streptomycin (final concentration 100 units/mL, ThermoFisher cat #15140122).
For movement assays, worms were cultured 37° C./5% CO2 in vented 100×25 mm petri dishes (ThermoFisher cat #4031) containing 50 mL of media and used between 1-3 days after harvesting. Prior to assessing worm movement, individuals were transferred to a six well dish (4-5 individuals per well) containing 3 mL drug solution in RPMI 1640 supplemented with HEPES (25 mM) and MS (5%). Videos were recorded using a Zeiss Discovery v20 stereomicroscope and a QiCAM 12-bit cooled color CCD camera controlled by metamorph imaging software (version 7.8.1.0). 1 minute recordings were acquired at 4 frames per second, saved as a .TIFF stack, and movement was analyzed using ImageJ software as described in (PMID: 27187180, PMID: 27397763).

The target of experiment [1] is Sm.5HTR (Schistosoma mansoni, UniProt G4V5G4). Type of experiment: cell-based. Conditions: FIG. 10A.
The target in experiment [2] is Sm.5HTR (Schistosoma mansoni, UniProt A0A173FEI8). Kind of experiment: cell-based. In outline: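 HEK293 cells stably co-expressing Sm.5HTR and the GloSensor-22F cAMP sensor, plated at 2.5×10^4/well the day before or assayed in suspension at 5000/well in 384-well plates. Assay buffer: HBSS, 20 mM HEPES pH 7.4, 0.1% BSA, 1 mg/mL D-luciferin. Equilibrated 1 h at room temperature, then IBMX 200 μM for 30 min before compound.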

A further experiment has as its system adult schistosomes. The experiment is described as follows: Egg laying assay, adult schistosome pairs in vitro. Type of experiment: cell-based, Schistosoma mansoni.
Text: as §1
For egg laying assays, adult schistosomes were transferred to 24 well plates the day after harvesting from mice (5 worm pairs in 2 mL media per well). Eggs were counted under a stereomicroscope daily, after which worms were transferred to a new well with fresh drug containing media. Egg counts were recorded for five days, and data processed as the mean number of eggs laid per worm pair/day. Measurements of egg dimensions were quantified using the “analyze>measure” function in ImageJ to record the length and width of individual eggs.

Chain of Sm.5HTR (Schistosoma mansoni, UniProt G4V5G4) (G4V5G4 entry or part of it): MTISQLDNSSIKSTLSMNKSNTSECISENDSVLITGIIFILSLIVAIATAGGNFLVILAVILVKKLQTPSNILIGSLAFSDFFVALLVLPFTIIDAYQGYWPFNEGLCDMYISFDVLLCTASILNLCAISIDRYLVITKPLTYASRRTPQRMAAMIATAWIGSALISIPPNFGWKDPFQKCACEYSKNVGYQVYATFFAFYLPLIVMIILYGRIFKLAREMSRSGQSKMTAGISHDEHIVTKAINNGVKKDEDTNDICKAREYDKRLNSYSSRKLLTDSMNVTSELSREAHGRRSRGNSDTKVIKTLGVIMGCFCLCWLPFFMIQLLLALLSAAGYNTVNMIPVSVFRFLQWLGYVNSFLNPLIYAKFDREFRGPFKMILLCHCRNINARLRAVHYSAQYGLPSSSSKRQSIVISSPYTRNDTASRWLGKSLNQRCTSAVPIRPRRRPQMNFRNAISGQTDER
Chain of Sm.5HTR (Schistosoma mansoni, UniProt A0A173FEI8) (A0A173FEI8 entry or part of it): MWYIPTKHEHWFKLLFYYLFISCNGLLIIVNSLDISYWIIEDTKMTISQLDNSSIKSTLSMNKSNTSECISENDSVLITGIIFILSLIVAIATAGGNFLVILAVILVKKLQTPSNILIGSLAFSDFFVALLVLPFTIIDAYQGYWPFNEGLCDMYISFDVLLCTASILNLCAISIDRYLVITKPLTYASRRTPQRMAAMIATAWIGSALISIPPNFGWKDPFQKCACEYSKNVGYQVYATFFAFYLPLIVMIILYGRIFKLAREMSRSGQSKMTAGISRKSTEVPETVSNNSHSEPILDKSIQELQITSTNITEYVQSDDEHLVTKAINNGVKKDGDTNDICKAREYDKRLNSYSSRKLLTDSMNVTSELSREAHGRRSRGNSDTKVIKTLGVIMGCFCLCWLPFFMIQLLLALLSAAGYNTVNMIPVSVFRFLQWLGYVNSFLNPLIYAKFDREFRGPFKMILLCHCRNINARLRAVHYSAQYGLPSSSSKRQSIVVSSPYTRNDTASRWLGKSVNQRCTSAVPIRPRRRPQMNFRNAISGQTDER

With `CN1C[C@H](C(=O)N[C@]2(C)O[C@@]3(O)[C@@H]4CCCN4C(=O)[C@H](Cc4ccccc4)N3C2=O)C=C2c3cccc4[nH]cc(c34)C[C@H]21` [ergotamine], the EC50 (commonly the concentration needed to bring the measured effect to its halfway point) in the experiment with adult S. mansoni is 10 ± 3 nM; at Sm.5HTR [1] (read-out: EC50, agonist activity at Sm.5HTR), 232 nM; on Sm.5HTR [2] it was 43 ± 13 nM. Further, on Sm.5HTR [1], the “agonist efficacy at Sm.5HTR, in words” value is listed as “partial agonism”. In addition, the Emax (commonly the maximal effect, on the per cent scale that the assay sets) at Sm.5HTR [2] (HEK293, read-out: Sm.5HTR Emax) came to 95 ± 5%. In addition, the “reduction in size of eggs” value in the experiment on adult schistosomes (FIGS. 19H&I, ergotamine 1 μM) was 43%. The “decrease of egg laying” value with adult schistosomes (serotonin 100 μM, forskolin 100 μM, LSD 10 μM, nuciferine 10 μM, ergotamine 5 μM (FIG. 19F), eggs per worm pair/day over five days) is 54%.

The values are drawn from patent US10426772B2, “Use of ergot alkaloids as an anthelmintic agent” (priority 2016, dated 2019).
